Data taken from US8486891B2, “Nasal calcitonin formulations containing chlorobutanol” (Par Pharmaceutical, Inc., priority 2003, dated 2013).
Blank lines part the entries; values can stand above or below the molecule they belong to.

Key:
rat trachea = assay: Inhibition of ciliary beating frequency of rat trachea; type: cell-based
From the text: The prior art teaches away from the use of chlorobutanol stating that at 0.6% concentration, the chlorobutanol caused more than 50% inhibition of ciliary beating frequency of rat trachea.

[1] = ingredient as supplied (EP grade); cited from earlier work
frog palate = conditions: ex vivo frog palate; Braga et al. 1992; cited from earlier work
[2] = tested on: respiratory mucosal tissue; conditions: in vitro exposure; Berg et al. 1994; cited from earlier work
[3] = healthy volunteers, decongestant nasal spray containing the preservative; cited from earlier work

effect on ciliary beating frequency of rat trachea (rat trachea; chlorobutanol concentration less than 0.4%): greatly reduced
effect on ciliary beating frequency of rat trachea (rat trachea; chlorobutanol concentration of around 0.25%): totally eliminated
Molecule: CC(C)(O)C(Cl)(Cl)Cl [chlorobutanol]

Molecule: Salmon Calcitonin [Salmon Calcitonin, EP]
Potency [1]: Potency of 6236 IU/mg

Molecule: benzalkonium chloride
mucocilary transport velocity (frog palate): significant slowing
morphological effect on respiratory mucosal tissue [2]: severe morphological alterations
effect on rhinitis [3]: aggravate rhinitis
